The target in the assay is T1, ERα (Homo sapiens, UniProt P03372).
T1 construct: host or cells: MCF7
T1 sequence (P03372 1-595): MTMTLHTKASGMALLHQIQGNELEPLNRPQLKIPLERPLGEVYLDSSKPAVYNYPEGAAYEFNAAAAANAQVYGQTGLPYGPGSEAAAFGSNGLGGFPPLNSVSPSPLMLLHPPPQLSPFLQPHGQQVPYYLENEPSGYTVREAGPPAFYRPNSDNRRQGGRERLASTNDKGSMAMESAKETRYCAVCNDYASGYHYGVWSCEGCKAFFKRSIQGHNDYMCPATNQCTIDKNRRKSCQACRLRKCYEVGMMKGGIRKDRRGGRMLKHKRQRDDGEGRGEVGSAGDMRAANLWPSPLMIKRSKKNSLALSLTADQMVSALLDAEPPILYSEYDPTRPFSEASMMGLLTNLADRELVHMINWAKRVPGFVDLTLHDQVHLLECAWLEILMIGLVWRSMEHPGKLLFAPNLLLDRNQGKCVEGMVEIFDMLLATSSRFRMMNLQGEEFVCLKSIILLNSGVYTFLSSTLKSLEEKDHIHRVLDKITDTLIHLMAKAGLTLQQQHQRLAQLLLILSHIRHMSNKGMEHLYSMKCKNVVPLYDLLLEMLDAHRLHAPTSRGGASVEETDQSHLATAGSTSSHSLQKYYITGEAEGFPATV
The assay can be described thus: Estrogen receptor degradation activity: breast cancer cell ERα in cell western assay (MCF7 cells). It counts as cell-based. The conditions noted are these: for % Degradation At 0.3 μM: 4 hours, relative to fulvestrant 0.1 μM positive control; for DC50: 4 hours post compound addition, concentration which degrades 50% of the estrogen receptor, read-out: Degradation IC50. The method in brief: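 In-cell western readout: ERα immunofluorescence (Alexa 488) normalised to DNA signal (Syto-64) after formalin fixation. Compounds dosed for 4 h on MCF7 cells in stripped-serum, phenol-red-free medium over nine 1:5 steps, 0.3 to […] final; fulvestrant 0.1 μM control. IC50 in nM for 50% ERα degradation.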

Molecules are shown by their SMILES.

Take `CC1(C)CCCC(C2=C(c3ccc(C=C4CN(CCCF)C4)cc3)c3ccc(C(=O)O)cc3CCC2)C1` (single isomer, unassigned) [Example 171, 8-(3,3-dimethylcyclohexyl)-9-(4-((1-(3-fluoropropyl)azetidin-3-ylidene)methyl)phenyl)-6,7-dihydro-5H-benzo[7]annulene-3-carboxylic acid]: the “% Degradation At 0.3 μM” value amounted to 88% and the DC50 turned out to be 0.4 nM.

Take `O=C(O)c1ccc2c(c1)CCCC(c1cccc(Cl)c1)=C2c1ccc(C=C2CN(CCCF)C2)cc1` [Example 180, 8-(3-chlorophenyl)-9-(4-((1-(3-fluoropropyl)azetidin-3-ylidene)methyl)phenyl)-6,7-dihydro-5H-benzo[7]annulene-3-carboxylic acid]: the “% Degradation At 0.3 μM” value is 90% and the DC50 is 0.5 nM.

With `Cc1ccccc1C1=C(c2ccc(C=C3CN(CCCF)C3)cc2)c2ccc(C(=O)O)cc2CCC1` [Example 99, 9-(4-((1-(3-fluoropropyl)azetidin-3-ylidene)methyl)phenyl)-8-(o-tolyl)-6,7-dihydro-5H-benzo[7]annulene-3-carboxylic acid], the “% Degradation At 0.3 μM” value was 95% and the DC50 stood at 0.3 nM.

Consider `Cc1c(C=C2CN(CCCF)C2)ccc(C2=C(c3ccc(Cl)cc3Cl)CCCc3cc(C(=O)O)ccc32)c1F.Cl` [Example 74, 8-(2,4-dichlorophenyl)-9-(2-fluoro-4-((1-(3-fluoropropyl)azetidin-3-ylidene)methyl)-3-methylphenyl)-6,7-dihydro-5H-benzo[7]annulene-3-carboxylic acid hydrochloride], for which the “% Degradation At 0.3 μM” value stood at 92% and the DC50 was 0.5 nM.

Consider `Cc1cc(F)ccc1C1=C(c2ccc(C=C3CN(CCCF)C3)c(C)c2F)c2ccc(C(=O)O)cc2CCC1` [Example 67, 8-(4-fluoro-2-methylphenyl)-9-(2-fluoro-4-((1-(3-fluoropropyl)azetidin-3-ylidene)methyl)-3-methylphenyl)-6,7-dihydro-5H-benzo[7]annulene-3-carboxylic acid], for which the “% Degradation At 0.3 μM” value is on record as 99% and the DC50 worked out at 0.5 nM.

For the compound `CC1(C)CCCC(C2=C(c3ncc(C=C4CN(CCCF)C4)cc3F)c3ccc(C(=O)O)cc3CCC2)C1` (racemic) [Example 186, 8-(3,3-Dimethylcyclohexyl)-9-(3-fluoro-5-((1-(3-fluoropropyl)azetidin-3-ylidene)methyl)pyridin-2-yl)-6,7-dihydro-5H-benzo[7]annulene-3-carboxylic acid, racemic mixture], the “% Degradation At 0.3 μM” value came out at 92% and the DC50 came out at 1 nM.

Take `Cc1cc(F)ccc1C1=C(c2cc(F)c(C=C3CN(CCCF)C3)cc2C)c2ccc(C(=O)O)cc2CCC1.Cl` [Example 61, 8-(4-fluoro-2-methylphenyl)-9-(5-fluoro-4-((1-(3-fluoropropyl)azetidin-3-ylidene)methyl)-2-methylphenyl)-6,7-dihydro-5H-benzo[7]annulene-3-carboxylic acid hydrochloride]: the “% Degradation At 0.3 μM” value stood at 93% and the DC50 is 0.8 nM.

In the case of `O=C(O)c1ccc2c(c1)CCCC(c1ccc(F)cc1C(F)(F)F)=C2c1ccc(C=C2CN(CCC(F)F)C2)cc1` [Example 25, 9-(4-((1-(3,3-difluoropropyl)azetidin-3-ylidene)methyl)phenyl)-8-(4-fluoro-2-(trifluoromethyl)phenyl)-6,7-dihydro-5H-benzo[7]annulene-3-carboxylic acid], the “% Degradation At 0.3 μM” value is listed as 92% and the DC50 was found to be 0.5 nM.

Consider `O=C(O)c1ccc2c(c1)CCCC(c1ccc(Cl)cc1Cl)=C2c1c(F)cc(C=C2CN(CCCF)C2)cc1F` [Example 73, 8-(2,4-dichlorophenyl)-9-(2,6-difluoro-4-((1-(3-fluoropropyl)azetidin-3-ylidene)methyl)phenyl)-6,7-dihydro-5H-benzo[7]annulene-3-carboxylic acid], for which the “% Degradation At 0.3 μM” value is listed as 98% and the DC50 was 0.3 nM.

(Values after patent US12612360B2 (Sanofi, priority 2020, dated 2026).)
